# Source: US20230331690A1, “THC DERIVATIVES, ORAL DOSAGE FORMS COMPRISING SAME, USES THEREOF FOR TREATING DISEASES AND DISORDERS AND SYNTHESIS THEREOF” (BAR-ILAN UNIVERSITY, priority 2020, published 2023)
# “And” between values parts separate entries of the source, which are not always exact repeats. Equal entries are not always repeated.
# Tested on: hind paw of mice
# Experiment: Electronic Von-Frey mechanical sensitivity (withdrawal thresholds) after Paclitaxel-induced neuropathic pain
# Assay type: in vivo
# Conditions: for Withdrawal test, test 1 / Withdrawal test, test 4 / Withdrawal test, test 5 / Withdrawal test, test 6 / Withdrawal test, test 2 / Withdrawal test, test 3: per animal; for Withdrawal test, All group average: 8 mice; for Withdrawal test, Average: average per animal; for Withdrawal test, Change from b.l.: group average vs baseline; for Withdrawal test, test 6: additional test
# Experimental: Mechanical sensitivity was evaluated by measuring the changes in tactile sensitivity in the hind paw of mice, using an Electronic Von-Frey apparatus (EVF). Withdrawal thresholds were measured, using the EVF apparatus, first at baseline (time=0) and then following drug, in a few periods after administration, by applying an accurate force on specific areas of the skin and measuring the needed force for the mouse to lift its paw.
# Paclitaxel was utilized for the stimulation of a chemotherapy-induced neuropathic pain. Paclitaxel is anti-cancer chemotherapy drug classified as a “plant alkaloid” and an “antimicrotubule agent”.
# Mice were divided into three groups of 8 mice each, as follows: • (a) Group no. 1—Morphine as positive control; • (b) Group no. […] 3—synthetic THC derivative 9-Desmethyl THC.
# A portion of Paclitaxel was administered to each mouse by i.p. injection, on days 1, 3, 5 and 7 from the beginning of the experiment. At day 8, withdrawal thresholds were measured first at baseline (time=0), thereafter each mouse received a single portion of a drug substance, at 5 mg/Kg body weight concentration, by oral gavage and measurements took place.
# The first checking point was 1 hour after administration of each drug. For every mouse, its threshold for the pain perception in which it removes its hind paw after the stabbing of the Von-Frey hair has been checked. Needed force (in gram force units) was measured each time and was recorded for every checking. This test was repeated 5 times for each mouse consecutively.
# This procedure was repeated for all the three groups. The next checking point was 3 hours after administration, where the last withdrawal thresholds measurements were performed on the next morning, on day 9, which was 24 hours after administration.
# Morphine was utilized as a positive control where group no. 1 mice received morphine (dissolved in a saline solution (0.9%) and injected subcutaneously) as an analgesic agent, prior to the mechanical sensitivity tests.
# The tests described in this example are complicated and depend on numerous factors. Accordingly, results above 10.0 gram force (marked with an asterisk) were not included in the evaluation of the experimental data. In cases of exceptional results, an additional test was performed mouse (test 6) in order to assure the exceptional result.
# [1] = t = 1 h after 5 mg/Kg, * values excluded
# [2] = t = 3 h after 5 mg/Kg, * values excluded
# [3] = t = 24 h after 5 mg/Kg, * values excluded
smiles,measurement,setting,value
"CCCCCc1cc(O)c2c(c1)OC(C)(C)[C@@H]1CCC=C[C@@H]21 [9-Desmethyl THC, 9-desmethyl-THC]",average decrease in the withdrawal thresholds,"1 h after 5 mg/Kg, vs baseline",10.2%
same,decrease compared to baseline in the withdrawal thresholds,3 h after 5 mg/Kg,12.1%
same,"Withdrawal test, test 1","t = 1 h after 5 mg/Kg single dose (oral gavage; morphine s.c.), * values >10.0 excluded from evaluation",4.0 gram force (2×) and 7.2 gram force and 5.1 gram force and 4.3 gram force and 4.9 gram force and 7.3 gram force and 5.3 gram force
same,"Withdrawal test, All group average",t = 1 h after 5 mg/Kg,5.55 gram force
same,"Withdrawal test, Average",t = 1 h after 5 mg/Kg,4.82 gram force and 5.82 gram force and 5.84 gram force and 6.20 gram force and 5.12 gram force and 5.18 gram force and 5.98 gram force and 5.42 gram force
same,"Withdrawal test, Change from b.l.",t = 1 h after 5 mg/Kg,−10.2%
same,"Withdrawal test, test 4",t = 1 h after 5 mg/Kg,5.3 gram force (2×) and 5.7 gram force and 4.0 gram force and 4.3 gram force (2×) and 5.4 gram force and 4.5 gram force
same,"Withdrawal test, test 5",t = 1 h after 5 mg/Kg,4.3 gram force and 6.8 gram force (2×) and 4.4 gram force and 7.4 gram force and 4.6 gram force and 4.1 gram force and 5.6 gram force
same,"Withdrawal test, test 6",t = 1 h after 5 mg/Kg,6.3 gram force and 5.3 gram force
same,"Withdrawal test, test 2",[1],6.1 gram force (2×) and 4.7 gram force and 9.8 gram force and 9.4 gram force and 6.7 gram force and 5.7 gram force and 4.0 gram force
same,"Withdrawal test, test 3",[1],4.4 gram force and 5.1 gram force and 4.2 gram force (2×) and 6.2 gram force and 5.7 gram force and 7.0 gram force and 7.7 gram force
same,"Withdrawal test, All group average",t = 3 h after 5 mg/Kg,5.43 gram force
same,"Withdrawal test, Average",t = 3 h after 5 mg/Kg,5.34 gram force and 5.02 gram force and 5.00 gram force and 5.62 gram force and 5.70 gram force (2×) and 5.22 gram force and 5.86 gram force
same,"Withdrawal test, Change from b.l.",t = 3 h after 5 mg/Kg,−12.1%
same,"Withdrawal test, test 2",t = 3 h after 5 mg/Kg,5.1 gram force and 4.6 gram force and 4.8 gram force (2×) and 8.6 gram force (2×) and 4.7 gram force and 5.5 gram force
same,"Withdrawal test, test 4",t = 3 h after 5 mg/Kg,4.1 gram force and 5.0 gram force and 5.4 gram force (2×) and 9.5 gram force and 4.9 gram force and 6.0 gram force and 4.2 gram force
same,"Withdrawal test, test 5",t = 3 h after 5 mg/Kg,4.7 gram force (2×) and 6.3 gram force and 4.2 gram force and 4.3 gram force and 6.5 gram force and 6.8 gram force and 7.0 gram force
same,"Withdrawal test, test 6",t = 3 h after 5 mg/Kg,4.4 gram force and 4.9 gram force (2×)
same,"Withdrawal test, test 1",[2],7.4 gram force and 5.0 gram force and 4.8 gram force and 4.3 gram force and 4.5 gram force and 4.6 gram force and 7.0 gram force and 6.8 gram force
same,"Withdrawal test, test 3",[2],5.4 gram force and 4.2 gram force and 5.8 gram force and 5.2 gram force and 4.0 gram force (3×) and 4.6 gram force
same,"Withdrawal test, All group average",t = 24 h after 5 mg/Kg,5.36 gram force
same,"Withdrawal test, Average",t = 24 h after 5 mg/Kg,6.58 gram force and 4.80 gram force and 5.28 gram force and 6.12 gram force and 4.96 gram force and 4.74 gram force and 5.16 gram force and 5.26 gram force
same,"Withdrawal test, Change from b.l.",t = 24 h after 5 mg/Kg,−13.3%
same,"Withdrawal test, test 1",t = 24 h after 5 mg/Kg,5.4 gram force and 5.0 gram force (2×) and 4.2 gram force (3×) and 7.0 gram force and 7.1 gram force
same,"Withdrawal test, test 2",t = 24 h after 5 mg/Kg,6.9 gram force and 4.1 gram force (3×) and 4.7 gram force and 5.6 gram force and 4.4 gram force and 4.5 gram force
same,"Withdrawal test, test 3",t = 24 h after 5 mg/Kg,8.8 gram force and 4.1 gram force (2×) and 4.7 gram force and 4.2 gram force and 4.0 gram force and 5.6 gram force and 6.1 gram force
same,"Withdrawal test, test 4",[3],4.4 gram force and 6.2 gram force and 8.1 gram force and 9.0 gram force and 5.0 gram force and 5.1 gram force and 7.6 gram force and 4.0 gram force
same,"Withdrawal test, test 5",[3],7.4 gram force and 4.6 gram force (2×) and *10.0 gram force and 5.8 gram force and 7.3 gram force and 4.0 gram force (2×)
